Experiment [1] has as its system Trypanosoma brucei (BSF). In words: Growth inhibition of cultured bloodstream form T. brucei. As to conditions: for IC50 / IC90: Trypanosoma brucei, cultured bloodstream form, strain 427, triplicate; for IC50: read-out: Trypanosoma brucei (BSF) IC50 ± SD; for IC90: read-out: Trypanosoma brucei (BSF) IC90 ± SD. It is filed as cell-based, Trypanosoma brucei (strain 427). The procedure: Treatment of parasites with micromolar levels of these inhibitors could result in cell death within 4 h (Fig. 1).
[30] Growth inhibitory properties against cultured bloodstream form T. brucei were determined as described previously.[29] Experiments were performed in triplicate and data are presented as ±SD.

A further experiment has as its target T1, rhHDAC 6 (Homo sapiens, UniProt Q9UBN7).
T1 sequence (Q9UBN7 1-1215): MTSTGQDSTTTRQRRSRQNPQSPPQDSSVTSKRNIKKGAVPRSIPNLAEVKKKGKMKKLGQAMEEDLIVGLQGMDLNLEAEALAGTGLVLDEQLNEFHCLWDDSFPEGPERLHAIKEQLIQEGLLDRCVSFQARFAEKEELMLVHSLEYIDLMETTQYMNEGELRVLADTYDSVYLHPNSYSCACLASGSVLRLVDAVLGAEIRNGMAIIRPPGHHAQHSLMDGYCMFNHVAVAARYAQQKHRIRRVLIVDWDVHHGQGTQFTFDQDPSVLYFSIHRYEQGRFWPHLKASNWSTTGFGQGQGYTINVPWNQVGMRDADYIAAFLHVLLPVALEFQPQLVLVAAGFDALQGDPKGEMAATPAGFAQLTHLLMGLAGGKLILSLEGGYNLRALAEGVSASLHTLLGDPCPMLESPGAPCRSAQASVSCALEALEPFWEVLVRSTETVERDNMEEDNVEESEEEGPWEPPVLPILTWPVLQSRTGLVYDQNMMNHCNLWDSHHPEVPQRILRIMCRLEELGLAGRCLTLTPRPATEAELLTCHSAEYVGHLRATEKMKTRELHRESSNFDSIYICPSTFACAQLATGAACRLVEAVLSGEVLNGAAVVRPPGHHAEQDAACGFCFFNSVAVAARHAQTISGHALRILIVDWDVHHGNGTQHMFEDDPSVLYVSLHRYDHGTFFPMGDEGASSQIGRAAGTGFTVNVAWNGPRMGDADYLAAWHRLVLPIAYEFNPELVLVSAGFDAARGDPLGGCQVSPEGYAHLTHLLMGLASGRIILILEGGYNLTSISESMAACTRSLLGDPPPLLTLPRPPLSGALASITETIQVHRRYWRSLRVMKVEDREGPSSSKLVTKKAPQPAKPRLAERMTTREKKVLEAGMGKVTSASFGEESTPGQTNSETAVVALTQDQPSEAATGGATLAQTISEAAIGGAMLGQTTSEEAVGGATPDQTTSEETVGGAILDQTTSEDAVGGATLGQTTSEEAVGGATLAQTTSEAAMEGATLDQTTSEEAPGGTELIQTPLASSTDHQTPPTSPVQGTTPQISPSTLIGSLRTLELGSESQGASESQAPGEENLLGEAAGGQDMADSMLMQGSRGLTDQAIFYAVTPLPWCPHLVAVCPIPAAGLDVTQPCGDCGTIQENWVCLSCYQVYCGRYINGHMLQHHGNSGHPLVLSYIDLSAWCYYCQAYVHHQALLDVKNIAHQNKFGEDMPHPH
Nature of the experiment: Inhibition of recombinant human HDAC isoforms. The settings on record: mean ± SD, triplicate per plate, min two plates; read-out: ED50 rhHDAC 6. The format is biochemical. The source says:
(§1) The compounds from the different structural subclasses were all active as HDAC inhibitors, measured in an assay of enzymes in HeLa cell lysates.[23,24] HeLa cells express multiple HDACs, including HDAC 1, 2, 3, 4, and 8.[25–27] […] To further characterise the compounds with respect to HDAC selectivity, we determined their inhibitory properties against recombinant expressed human HDACs (rhHDAC 1–4, 6–9).[28]

Another experiment has as its target T2, rhHDAC 7 (Homo sapiens, UniProt Q8WUI4).
T2 sequence (Q8WUI4 1-952): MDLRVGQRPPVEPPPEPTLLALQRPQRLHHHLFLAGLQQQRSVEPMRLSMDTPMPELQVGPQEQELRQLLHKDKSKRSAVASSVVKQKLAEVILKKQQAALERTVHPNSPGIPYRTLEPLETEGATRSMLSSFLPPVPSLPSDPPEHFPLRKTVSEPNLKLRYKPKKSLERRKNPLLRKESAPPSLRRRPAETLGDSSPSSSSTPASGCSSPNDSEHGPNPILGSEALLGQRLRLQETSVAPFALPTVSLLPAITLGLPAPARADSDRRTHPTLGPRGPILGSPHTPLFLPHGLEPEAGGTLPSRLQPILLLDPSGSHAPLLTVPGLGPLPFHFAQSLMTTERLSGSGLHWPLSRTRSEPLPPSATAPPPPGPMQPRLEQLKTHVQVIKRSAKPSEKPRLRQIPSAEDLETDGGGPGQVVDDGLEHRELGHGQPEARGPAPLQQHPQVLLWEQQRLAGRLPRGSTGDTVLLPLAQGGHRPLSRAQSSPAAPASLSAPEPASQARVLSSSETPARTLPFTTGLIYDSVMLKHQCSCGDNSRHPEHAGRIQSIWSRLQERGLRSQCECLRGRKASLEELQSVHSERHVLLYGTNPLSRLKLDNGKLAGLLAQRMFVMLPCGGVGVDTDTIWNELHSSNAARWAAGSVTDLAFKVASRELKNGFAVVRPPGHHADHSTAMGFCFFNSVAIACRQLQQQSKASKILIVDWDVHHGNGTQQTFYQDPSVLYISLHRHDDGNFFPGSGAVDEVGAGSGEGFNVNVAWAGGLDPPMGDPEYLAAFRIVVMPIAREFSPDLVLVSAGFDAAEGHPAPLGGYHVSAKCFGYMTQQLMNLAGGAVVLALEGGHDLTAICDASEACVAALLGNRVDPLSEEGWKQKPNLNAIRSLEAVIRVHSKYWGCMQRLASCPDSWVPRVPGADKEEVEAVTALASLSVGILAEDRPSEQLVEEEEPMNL
Nature of the experiment: Inhibition of recombinant human HDAC isoforms. The format is biochemical. The settings on record: mean ± SD, triplicate per plate, min two plates; read-out: ED50 rhHDAC 7.
From the text: as §1

Another experiment deals with rhHDAC 2 (Homo sapiens, UniProt Q92769). In words: Inhibition of recombinant human HDAC isoforms. The format is biochemical. As to conditions: mean ± SD, triplicate per plate, min two plates; read-out: ED50 rhHDAC 2.
Chain of rhHDAC 2 (Q92769 whole entry, canonical isoform): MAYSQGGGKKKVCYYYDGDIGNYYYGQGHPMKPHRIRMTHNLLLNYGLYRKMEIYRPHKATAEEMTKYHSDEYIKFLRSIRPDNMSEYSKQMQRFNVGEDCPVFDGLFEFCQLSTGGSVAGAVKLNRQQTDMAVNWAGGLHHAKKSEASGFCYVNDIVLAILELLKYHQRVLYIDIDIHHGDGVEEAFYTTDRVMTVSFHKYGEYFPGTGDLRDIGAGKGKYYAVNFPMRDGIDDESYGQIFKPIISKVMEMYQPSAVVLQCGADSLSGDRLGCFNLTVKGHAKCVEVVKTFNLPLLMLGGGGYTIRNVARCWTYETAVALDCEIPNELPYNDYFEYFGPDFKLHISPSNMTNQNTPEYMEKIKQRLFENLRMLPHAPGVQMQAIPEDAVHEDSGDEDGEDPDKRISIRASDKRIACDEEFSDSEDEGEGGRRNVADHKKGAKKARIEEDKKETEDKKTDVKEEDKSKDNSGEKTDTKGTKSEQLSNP
From the text: as §1

For a further experiment, the target named is rhHDAC 1 (Homo sapiens, UniProt Q13547). In words: Inhibition of recombinant human HDAC isoforms. The format is biochemical. The settings on record: mean ± SD, triplicate per plate, min two plates; read-out: ED50 rhHDAC 1.
Chain of rhHDAC 1 (Q13547 whole entry, canonical isoform): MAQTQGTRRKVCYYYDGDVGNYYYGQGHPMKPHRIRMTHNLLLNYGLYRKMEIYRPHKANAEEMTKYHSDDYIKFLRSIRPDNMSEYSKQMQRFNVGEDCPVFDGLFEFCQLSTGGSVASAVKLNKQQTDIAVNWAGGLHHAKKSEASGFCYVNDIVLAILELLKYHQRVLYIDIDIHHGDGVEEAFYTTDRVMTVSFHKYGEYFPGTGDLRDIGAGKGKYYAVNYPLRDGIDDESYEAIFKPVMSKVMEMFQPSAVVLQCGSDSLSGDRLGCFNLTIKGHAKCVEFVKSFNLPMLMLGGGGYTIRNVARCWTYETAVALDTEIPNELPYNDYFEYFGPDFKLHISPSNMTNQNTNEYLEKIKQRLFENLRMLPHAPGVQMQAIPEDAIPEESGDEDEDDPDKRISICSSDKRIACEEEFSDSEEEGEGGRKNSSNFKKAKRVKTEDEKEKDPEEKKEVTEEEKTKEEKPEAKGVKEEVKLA
From the text: as §1

The target of another experiment is rhHDAC 9 (Homo sapiens, UniProt Q9UKV0). Nature of the experiment: Inhibition of recombinant human HDAC isoforms. It is filed as biochemical. As to conditions: mean ± SD, triplicate per plate, min two plates; read-out: ED50 rhHDAC 9.
Chain of rhHDAC 9 (Q9UKV0 whole entry, canonical isoform): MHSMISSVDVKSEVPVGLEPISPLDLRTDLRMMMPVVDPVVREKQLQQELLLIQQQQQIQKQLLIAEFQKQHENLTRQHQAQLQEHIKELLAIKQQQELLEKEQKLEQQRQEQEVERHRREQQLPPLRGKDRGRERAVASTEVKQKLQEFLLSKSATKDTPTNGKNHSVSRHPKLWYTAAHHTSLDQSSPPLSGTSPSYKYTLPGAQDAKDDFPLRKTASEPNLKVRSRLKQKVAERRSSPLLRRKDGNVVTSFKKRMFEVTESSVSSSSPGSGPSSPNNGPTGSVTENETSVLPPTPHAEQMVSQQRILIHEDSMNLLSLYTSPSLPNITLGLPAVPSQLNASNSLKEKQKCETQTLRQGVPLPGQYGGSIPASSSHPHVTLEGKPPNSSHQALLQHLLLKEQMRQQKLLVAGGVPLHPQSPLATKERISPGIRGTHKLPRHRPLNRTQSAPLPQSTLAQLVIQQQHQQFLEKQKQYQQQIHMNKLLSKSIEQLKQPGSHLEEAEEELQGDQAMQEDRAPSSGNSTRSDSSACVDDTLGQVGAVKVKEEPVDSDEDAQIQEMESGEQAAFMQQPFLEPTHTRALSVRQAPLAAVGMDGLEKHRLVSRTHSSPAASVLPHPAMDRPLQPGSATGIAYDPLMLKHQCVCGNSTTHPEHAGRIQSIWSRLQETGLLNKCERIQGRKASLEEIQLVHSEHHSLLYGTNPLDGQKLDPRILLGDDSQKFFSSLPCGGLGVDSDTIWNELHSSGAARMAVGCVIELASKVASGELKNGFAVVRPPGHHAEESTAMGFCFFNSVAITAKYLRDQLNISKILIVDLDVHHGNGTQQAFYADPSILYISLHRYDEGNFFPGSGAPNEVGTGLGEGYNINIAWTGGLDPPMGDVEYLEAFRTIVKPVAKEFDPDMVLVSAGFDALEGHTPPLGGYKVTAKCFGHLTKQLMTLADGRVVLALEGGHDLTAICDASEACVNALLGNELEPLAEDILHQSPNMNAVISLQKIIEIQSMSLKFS
From the text: as §1

For another experiment, the target named is rhHDAC 3 (Homo sapiens, UniProt O15379). Nature of the experiment: Inhibition of recombinant human HDAC isoforms. It is filed as biochemical. The settings on record: mean ± SD, triplicate per plate, min two plates; read-out: ED50 rhHDAC 3.
Chain of rhHDAC 3 (O15379 whole entry, canonical isoform): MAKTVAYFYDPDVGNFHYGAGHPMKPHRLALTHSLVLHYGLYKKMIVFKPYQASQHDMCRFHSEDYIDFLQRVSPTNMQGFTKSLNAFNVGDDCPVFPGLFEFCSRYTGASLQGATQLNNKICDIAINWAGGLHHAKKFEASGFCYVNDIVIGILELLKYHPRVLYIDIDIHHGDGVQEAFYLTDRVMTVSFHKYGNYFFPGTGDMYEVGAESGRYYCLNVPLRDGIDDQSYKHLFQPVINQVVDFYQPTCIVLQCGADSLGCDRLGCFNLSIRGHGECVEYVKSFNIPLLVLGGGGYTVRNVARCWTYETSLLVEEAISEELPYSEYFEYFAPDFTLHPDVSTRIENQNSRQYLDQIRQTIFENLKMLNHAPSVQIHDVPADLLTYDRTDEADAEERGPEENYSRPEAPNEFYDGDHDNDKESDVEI
Chain of rhHDAC 3 (Q9Y618 395-489 partner limits assumed): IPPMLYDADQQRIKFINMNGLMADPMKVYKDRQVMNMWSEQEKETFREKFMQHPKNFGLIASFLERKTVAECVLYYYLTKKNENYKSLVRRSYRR
From the text: as §1

A further experiment has as its target T3, rhHDAC 8 (Homo sapiens, UniProt Q9BY41).
T3 sequence (Q9BY41 1-377): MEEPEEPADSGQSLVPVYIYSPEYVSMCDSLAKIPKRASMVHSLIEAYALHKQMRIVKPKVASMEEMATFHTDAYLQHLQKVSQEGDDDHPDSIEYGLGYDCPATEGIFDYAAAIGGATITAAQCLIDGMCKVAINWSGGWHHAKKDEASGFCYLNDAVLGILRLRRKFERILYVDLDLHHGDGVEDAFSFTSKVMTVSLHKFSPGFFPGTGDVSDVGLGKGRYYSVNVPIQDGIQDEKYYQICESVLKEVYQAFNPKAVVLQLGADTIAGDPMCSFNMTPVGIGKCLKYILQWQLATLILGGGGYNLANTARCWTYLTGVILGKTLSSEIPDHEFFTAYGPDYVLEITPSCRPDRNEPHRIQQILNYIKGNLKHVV
In words: Inhibition of recombinant human HDAC isoforms. As to conditions: mean ± SD, triplicate per plate, min two plates; read-out: ED50 rhHDAC 8. It is filed as biochemical.
From the text: as §1

A further experiment concerns the target rhHDAC 4 (Homo sapiens, UniProt P56524). Nature of the experiment: Inhibition of recombinant human HDAC isoforms. The format is biochemical. The settings on record: mean ± SD, triplicate per plate, min two plates; read-out: ED50 rhHDAC 4.
From the text: as §1

In a further experiment the test system is HDAC (FDL_HELA). Nature of the experiment: Histone deacetylase activity in HeLa cell lysates (fluorescent assay kit). It is filed as biochemical, Human. The settings on record: lysed HeLa cells; read-out: HDAC (FDL_HELA) IC50 ± SD. On the procedure: as §1
[24] Histone deacetylase activity was determined in lysed Human cervix epithelial cancer HeLa cells. To determine the IC50 of test compound a commercially available fluorescent assay kit was used employing an acetylated enzyme substrate.[23]

The subject of a further experiment is DAC1. Also noted: method as in PMID 20624217. The settings on record: cited from earlier work.
Experiment [2] deals with Trypanosoma brucei (BSF). Also noted: method as in PMID 14726511. As to conditions: cited from earlier work.
For another experiment, the system named is DAC3. Details: method as in PMID 20624217. The settings on record: cited from earlier work.

Chain of rhHDAC 4 (P56524 whole entry, canonical isoform): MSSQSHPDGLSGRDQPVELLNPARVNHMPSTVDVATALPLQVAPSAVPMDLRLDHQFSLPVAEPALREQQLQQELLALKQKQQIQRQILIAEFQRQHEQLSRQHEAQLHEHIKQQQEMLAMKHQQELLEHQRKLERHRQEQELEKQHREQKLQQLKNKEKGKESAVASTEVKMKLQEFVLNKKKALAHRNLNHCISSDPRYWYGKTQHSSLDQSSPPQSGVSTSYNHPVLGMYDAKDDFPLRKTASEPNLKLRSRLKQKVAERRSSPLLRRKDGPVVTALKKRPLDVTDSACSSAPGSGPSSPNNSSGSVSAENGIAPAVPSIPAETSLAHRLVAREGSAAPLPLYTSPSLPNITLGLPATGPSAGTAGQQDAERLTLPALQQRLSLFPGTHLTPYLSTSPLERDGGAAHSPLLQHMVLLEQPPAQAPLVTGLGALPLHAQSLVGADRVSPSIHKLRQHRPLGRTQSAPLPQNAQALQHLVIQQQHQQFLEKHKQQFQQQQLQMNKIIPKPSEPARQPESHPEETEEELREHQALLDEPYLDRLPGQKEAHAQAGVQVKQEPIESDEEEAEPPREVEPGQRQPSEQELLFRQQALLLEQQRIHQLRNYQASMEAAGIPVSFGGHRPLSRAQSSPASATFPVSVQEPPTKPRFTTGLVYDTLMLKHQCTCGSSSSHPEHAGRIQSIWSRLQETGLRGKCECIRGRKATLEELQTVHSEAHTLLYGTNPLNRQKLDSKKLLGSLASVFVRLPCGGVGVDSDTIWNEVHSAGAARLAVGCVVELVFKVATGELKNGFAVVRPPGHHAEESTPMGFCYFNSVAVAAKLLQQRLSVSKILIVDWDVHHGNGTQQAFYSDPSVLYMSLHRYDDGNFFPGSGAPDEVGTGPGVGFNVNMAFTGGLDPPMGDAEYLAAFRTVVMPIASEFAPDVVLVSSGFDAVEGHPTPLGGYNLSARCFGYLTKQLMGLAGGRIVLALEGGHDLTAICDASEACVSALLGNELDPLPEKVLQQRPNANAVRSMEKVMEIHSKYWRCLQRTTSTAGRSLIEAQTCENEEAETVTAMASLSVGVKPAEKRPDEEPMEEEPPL

For the molecule `O=C(/C=C/c1nc2ccccc2o1)NO` [Compound 20], the IC50 in the experiment with Trypanosoma brucei (BSF) [1] was 1540 ± 60 nM; at rhHDAC 6, 68 ± 13 nM; at rhHDAC 7, 286 ± 8 nM; at rhHDAC 2, 554 ± 44 nM; at rhHDAC 1 it was 134 ± 6 nM; on rhHDAC 9 it was 278 ± 65 nM. Further, the IC50 at rhHDAC 3 turned out to be 97 ± 0.6 nM; on rhHDAC 8 it was 573 ± 30 nM; on rhHDAC 4 it was 373 ± 73 nM; with HDAC (FDL_HELA) it was 48 ± 28 nM. In addition, in the experiment with Trypanosoma brucei (BSF) [1], the IC90 (as a rule, the point of the concentration-response curve where the effect stands at 90%) was 2180 ± 180 nM. The “fold less active against T. brucei” value in the experiment on Trypanosoma brucei (BSF) [1] (relative to heterocyclic compounds 9 and 16) is recorded as 5- to 10 fold.

As to `CC(/C=C/C(=O)NO)=C\[C@@H](C)C(=O)c1ccc(N(C)C)cc1` [Trichostatin A], the “inhibition of DAC1 activity” value in the experiment on DAC1 is recorded as “inhibitor”. Also, the “growth of bloodstream form T. brucei” value in the experiment with Trypanosoma brucei (BSF) [2] was “suppresses growth”. In the experiment on DAC3, the “inhibition of DAC3 activity” value is recorded as “inhibitor”.

As for `COc1ccc(NS(=O)(=O)c2cccc(/C=C/C(=O)NO)c2)cc1` [Compound 18], the IC50 amounted to 606 ± 81 nM in the experiment on Trypanosoma brucei (BSF) [1]; 36 ± 3 nM on rhHDAC 6; 42 ± 22 nM at rhHDAC 7; 105 ± 64 nM at rhHDAC 2; 19 ± 1 nM on rhHDAC 1; 26 ± 3 nM at rhHDAC 9. Further, the IC50 at rhHDAC 3 stood at 23 ± 2 nM; at rhHDAC 8, 167 ± 72 nM; at rhHDAC 4, 33 ± 1 nM; with HDAC (FDL_HELA), 13 ± 5 nM. Moreover, in the experiment with Trypanosoma brucei (BSF) [1], the IC90 was 956 ± 35 nM.

Take `COc1ccc(N2CCN(S(=O)(=O)c3cccc(/C=C/C(=O)NO)c3)CC2)cc1` [Compound 10]: the IC50 with Trypanosoma brucei (BSF) [1] is 156 ± 3 nM; at rhHDAC 6, 107 ± 13 nM; at rhHDAC 2 it was 36 ± 0.7 nM; on rhHDAC 1, 76 ± 6 nM; at rhHDAC 9 it was 1180 nM; at rhHDAC 3, 295 ± 290 nM. In addition, the IC50 at rhHDAC 8 came to 955 ± 166 nM; on rhHDAC 4 it was 870 nM; in the experiment with HDAC (FDL_HELA) it was 212 ± 112 nM. Moreover, the IC90 in the experiment with Trypanosoma brucei (BSF) [1] came out at 224 ± 3 nM.

Turning to `O=C(/C=C/c1cccc(S(=O)(=O)Nc2cccc(F)c2)c1)NO` [Compound 15], the IC50 with Trypanosoma brucei (BSF) [1] was found to be 343 ± 17 nM; on rhHDAC 6, 35 ± 16 nM; on rhHDAC 7, 216 ± 133 nM; on rhHDAC 2 it was 221 ± 141 nM; on rhHDAC 1, 44 ± 0.1 nM; on rhHDAC 9, 109 ± 56 nM. Also, the IC50 at rhHDAC 3 amounted to 89 ± 32 nM; on rhHDAC 8, 211 ± 42 nM; at rhHDAC 4, 65 ± 20 nM; in the experiment on HDAC (FDL_HELA), 20 ± 4 nM. In the experiment on Trypanosoma brucei (BSF) [1], the IC90 worked out at 710 ± 17 nM.

These data come from article PMC3314994, “Inhibitors of human histone deacetylase with potent activity against the African trypanosome Trypanosoma brucei” (Bioorganic & Medicinal Chemistry Letters, 2012).
